Like-named read-outs stand apart in the source and are kept apart here.
Key:
[1] = test system: human colon cancer cell line HCT116; test: Measurement of cell proliferation inhibitory activity (Cell Counting Kit-8); type: cell-based; conditions: Homo sapiens, HCT-116, 96 h, HCT116, 4 days incubation, read-out: IC50 (50% proliferation inhibitory concentration)
Description: The cell proliferation inhibitory activities of the compounds and salts shown in Tables 1-1, 1-2 and Table 2 were measured as follows, using the human colon cancer cell line HCT116 (American Type Culture Collection, VA, USA). 2000 to 3000 cells per well of the human colon cancer cell line HCT116 was placed in a 96-well culture plate, a predetermined concentration (0.00038 μM, 0.00076 μM, 0.0015 μM, 0.0031 μM, 0.0061 μM, 0.012 μM, 0.024 μM, 0.049 μM, 0.098 μM, 0.195 μM, 0.39 μM, 0.78 μM, 1.56 μM, 3.13 μM, 6.25 μM, 12.5 μM, 25 μM or 50 μM) of the test substance was added thereto, and the mixture was then incubated at 37° C. under 5% CO2 environment for 4 days. On day 4 of incubation, the Cell Counting Kit-8 solution (Dojindo Laboratories) was added, the absorbance (measurement wavelength: 450 nm; reference wavelength: 615 nm) was measured following the protocol attached to the kit, and the 50% proliferation inhibitory concentration (IC50) was calculated.

[2] = Calculation of AUC value (plasma concentration after oral administration); type: in vivo; conditions: BALB/c (nu/nu), mouse, mice, plasma 15 min to 24 h, trapezoidal method, read-out: AUC (area under the blood concentration-time curve)
Description: The AUC (area under the blood concentration-time curve) values of the compounds and salts shown in Table 2 (only compound 1j-2-16-2 is Na salt; the others are free form) were calculated by administering the test substance to an animal and measuring its concentration in plasma. As the animals, BALB/c (nu/nu) mice (4 to 6 weeks old) procured from Japan Charles River Laboratories were used after a one-week taming period. As for the test substances other than Comp. 1, 5 mg/mL of the substance solution was given at 0.2 mL/10 g body weight (dose of the test substance: 100 mg/kg body weight). As for Comp. 1, 10 mg/mL of the substance solution was given at 0.2 mL/10 g body weight (dose of the test substance: 200 mg/kg body weight). Administration of the substance solution to a mouse was performed forcibly using an oral feeding tube. Blood was collected from the eye pit 15 minutes, 2 hours, 7 hours and 24 hours after administration of the substance solution, using a hematocrit tube treated with heparin. Paraoxon (final concentration: 1 mM) was added to the collected blood as a stabilizer, the mixture was centrifuged at 10000 rpm for 3 minutes, and plasma was separated. The plasma was stored in a freezer set to −80° C. until the time of measurement. The measurement was carried out as follows. 100 μL of distilled water to which the internal standard substance (a structural homolog, concentration adjusted appropriately depending on the compound used) had been added was added to 5 μL of the plasma, and then, a measurement sample was prepared through solid phase extraction processing using an Oasis HLB μElution Plate (Waters), and was analyzed by LC/MS/MS. The plasma concentration was calculated using a calibration curve prepared based on the ratio of standard substance to internal standard substance in control plasma of mice. The AUC was calculated from the data of plasma concentration of the drug by the trapezoidal method using Microsoft Excel 2003 (Microsoft).

| Compound | IC50 ([1]; Table 1-2) | AUC ([2]; 200 mg/kg body weight (Comp. 1)) | IC50 ([1]; Table 2) | AUC ([2]; in vivo, 100 mg/kg body weight) | AUC ([2]; 100 mg/kg body weight) |
| --- | --- | --- | --- | --- | --- |
| CCS(=O)(=O)Nc1cccc(Cc2c(C)c3cc(Cl)c(Oc4ncccn4)cc3oc2=O)c1 [Comp. 1, reference compound] | 160 nM | 97.6 µM·h |  |  |  |
| CNS(=O)(=O)Nc1cccc(Cc2c(C)c3ccc(OC(=O)N(C)C)cc3oc2=O)n1 [Compound 1j-1-13-2, Dimethylcarbamic acid 4-methyl-3-{6-(methylaminosulfonyl)aminopyridin-2-ylmethyl}-2-oxo-2H-1-benzopyran-7-yl ester] |  |  | 271 nM | 314 µM·h |  |
| Cc1c(Cc2cccc(NS(N)(=O)=O)c2F)c(=O)oc2cc(Oc3ncccn3)ccc12 [Compound 1j-2-4-1, 3-{2-Fluoro-3-(aminosulfonyl)aminobenzyl}-4-methyl-7-(pyrimidin-2-yloxy)-2-oxo-2H-1-benzopyran] |  |  | 150 nM |  | 811 µM·h |
| CNS(=O)(=O)Nc1cccc(Cc2c(C)c3ccc(Oc4ncccn4)cc3oc2=O)c1F [Compound 1j-2-4-2, 3-{2-Fluoro-3-(methylaminosulfonyl)aminobenzyl}-4-methyl-7-(pyrimidin-2-yloxy)-2-oxo-2H-1-benzopyran] |  |  | 44.7 nM |  | 425 µM·h |
| CNS(=O)(=O)Nc1cccc(Cc2c(CF)c3ccc(Oc4ncccn4)cc3oc2=O)c1F [Compound 1j-2-4-2F, 3-{2-Fluoro-3-(methylaminosulfonyl)aminobenzyl}-4-fluoromethyl-7-(pyrimidin-2-yloxy)-2-oxo-2H-1-benzopyran] |  |  | 165 nM |  | 317 µM·h |
| CNS(=O)(=O)Nc1cccc(Cc2c(C)c3cc(F)c(Oc4ncccn4)cc3oc2=O)c1F [Compound 1j-2-5-2, 3-{2-Fluoro-3-(methylaminosulfonyl)aminobenzyl}-4-methyl-7-(pyrimidin-2-yloxy)-6-fluoro-2-oxo-2H-1-benzopyran] |  |  | 75.1 nM |  | 344 µM·h |
| CNS(=O)(=O)Nc1cc(Cc2c(C)c3cc(Cl)c(Oc4ncccn4)cc3oc2=O)ccn1 [Compound 1j-2-12-2, 3-{2-(Methylaminosulfonyl)aminopyridin-4-ylmethyl}-4-methyl-7-(pyrimidin-2-yloxy)-6-chloro-2-oxo-2H-1-benzopyran] |  |  | 282 nM |  | 252 µM·h |
| CNS(=O)(=O)Nc1nccc(Cc2c(C)c3ccc(Oc4ncccn4)cc3oc2=O)c1F [Compound 1j-2-16-2, 3-{2-(Methylaminosulfonyl)amino-3-fluoropyridin-4-ylmethyl}-4-methyl-7-(pyrimidin-2-yloxy)-2-oxo-2H-1-benzopyran] |  |  | 40.8 nM |  | 3200 µM·h |
| CNS(=O)(=O)Nc1cccc(Cc2c(C)c3ccc(Oc4nccs4)cc3oc2=O)c1 [Compound 1j-3-1-2, 3-{3-(Methylaminosulfonyl)aminobenzyl}-4-methyl-7-(thiazol-2-yloxy)-2-oxo-2H-1-benzopyran] |  |  | 164 nM |  | 199 µM·h |
| CNS(=O)(=O)Nc1cccc(Cc2c(C)c3cc(C)c(Oc4nccs4)cc3oc2=O)c1 [Compound 1j-3-8-2, 3-{3-(Methylaminosulfonyl)aminobenzyl}-4-methyl-7-(thiazol-2-yloxy)-6-methyl-2-oxo-2H-1-benzopyran] |  |  | 96.8 nM |  | 149 µM·h |
| CNC(=O)CS(=O)(=O)Nc1cccc(Cc2c(C)c3ccc(Oc4nccs4)cc3oc2=O)c1F [Compound 1o-3-4-2, 2-{2-Fluoro-3-[4-methyl-2-oxo-7-(thiazol-2-yloxy)-2H-1-benzopyran-3-ylmethyl]phenylsulfamoyl}-N-methyl-acetamide] |  |  | 325 nM |  | 367 µM·h |
